Assay results reported in paper PMC12144822 (Parasites & Vectors, 2025).
“Also recorded” adds a separate entry of the source. Read-outs that look alike come from different tables or passages of the source.

Assays:
Hsa-GABA α2β2γ2 = Hsa-GABA α2β2γ2 (Homo sapiens, UniProt P18507+P47869+P47870); test: Two-electrode voltage-clamp inhibition of GABA current, receptor expressed in Xenopus oocytes
From the text: (§1) Complementary DNA (cDNA) encoding for the human GABAA proteins α1 (NM_001127645.2), α2 (NM_001377146.1), α3 (KJ620007.1), α4 (NM_000809.4), α5 (NM_000810.4), α6 (NM_000811.3), β2 (XM_054352312.1), β3 (M82919.1), γ2 (NM_000816.3) and δ (NM_000815.5) were ordered from Genewiz (www.genewiz.com; Leipzig, Germany); for each gene, GenBank accession numbers are provided in parentheses. When necessary, silent mutations were introduced to break NheI or XhoI internal restriction sites. The corresponding open reading frames (ORF) were cloned into the pT7-TS transcription vector (introducing X. laevis β-globin untranslated cDNA to the 5’ and 3’ ends of the gene), following a procedure described in detail in a previous publication. The same process was used to obtain cDNA encoding canine GABAA proteins α4 (XM_025435560.1), α6 (XM_022417729.1) and δ (XM_005620414.2). Gene α2 (XM_025435664.1), α3 (XM_549343.5), α5 (XM_545805.6) and β3 (XM_025437408.1) were obtained by PCR; GenBank reference accession numbers are provided in parentheses. RNA extraction, cDNA synthesis and PCR amplification were performed as described previously. Total RNA was extracted from a piece of dog brain (Beagle breed; Canis lupus familiaris) from which 1 µg of total RNA (DNase-treated) was reverse-transcribed to cDNA using a (dT)30 primer and SuperScript III Reverse Transcriptase (Invitrogen, Thermo Fisher Scientific, Waltham, MA, USA). Gene-specific primers (Additional file 1: Table S1) were designed using Primer 3 software (http://frodo.wi.mit.edu/). […] The cycling conditions were: 98 °C for 30 s; then 38 cycles of 98 °C for 10 s, 58 °C for 30 s and 72 °C for 90 s; followed by 72 °C for 5 min. The dog subunits α1 (XM_546261.5), β2 (XM_014113040.1) and γ2 (XM_546259.5) had been previously amplified and described in a study by Rufener et al..
(§2) Defoliculated X. laevis oocytes ordered from Ecocyte Bioscience (Dortmund, Germany) were microinjected with 15–25 nl of cRNA solution (5–50 ng/μl) per oocyte using an automated injector (Roboinject; Multi Channel Systems MCS GmbH, Reutlingen, Germany) and then incubated at 18 °C. All recordings were made 1–5 days post-cRNA injection and were performed at 18 ± 4 °C. Cells were superfused with OR2 medium (NaCl 88 mM, KCl 2.5 mM, HEPES 5 mM, CaCl2•2H2O 1.8 mM, MgCl2•7H2O 1.0 mM, pH 7.4). To ensure that γ2 subunits were integrated into the heteropentamers, we injected fivefold more γ2 than the other subunit cRNAs. Diazepam is a positive allosteric modulator of GABAR only if γ2 subunits are present. Therefore, we used this method to confirm the presence of human and dog GABAA receptor containing the γ2 subunit.
(§3) Voltage-clamp measurements were performed as described by Rufener et al.. Oocytes were impaled with two electrodes filled with 3 M KCl, and their membrane potentials were maintained at − 80 mV throughout the experiment. […] Recordings were performed using an automated process equipped with standard two-electrode voltage-clamp configuration (HiClamp system; Multi Channel Systems MCS GmbH). Data were filtered at 10 Hz, captured at 100 Hz and analyzed using proprietary data acquisition and analysis software in MATLAB (Mathworks Inc., Natick, MA, USA). Additional analyses were performed using Excel (Microsoft, Redmond, WA, USA). […] Graphing the maximum inward currents against the log of agonist concentration produces typical concentration-activation and concentration-inhibition curves, which can be accurately described using individual Hill equations.

Hsa-GABA α2β3γ2 = Hsa-GABA α2β3γ2 (Homo sapiens, UniProt P18507+P28472+P47869); test: as above
From the text: as §1, §2, §3

Hsa-GABA α3β2γ2 = Hsa-GABA α3β2γ2 (Homo sapiens, UniProt P18507+P34903+P47870); test: as above
From the text: as §1, §2, §3

Hsa-GABA α5β2γ2 = Hsa-GABA α5β2γ2 (Homo sapiens, UniProt P18507+P31644+P47870); test: as above
From the text: as §1, §2, §3

Hsa-GABA α6β2γ2 = Hsa-GABA α6β2γ2 (Homo sapiens, UniProt P18507+P47870+Q16445); test: as above
From the text: as §1, §2, §3

Clu-GABA α1β2γ2 = Clu-GABA α1β2γ2 (Canis lupus familiaris, UniProt A0A2H4NNI8+A0A8I3RPG5+E2RSQ0); test: as above; type: cell-based
From the text: as §1, §2, §3

Clu-GABA α2β2γ2 = Clu-GABA α2β2γ2 (Canis lupus familiaris, UniProt A0A8I3RPG5+A0A8I3S1N5+E2RSQ0); test: as above; type: cell-based
From the text: as §1, §2, §3

Clu-GABA α2β3γ2 = Clu-GABA α2β3γ2 (Canis lupus familiaris, UniProt A0A8I3NUI4+A0A8I3S1N5+E2RSQ0); test: as above; type: cell-based
From the text: as §1, §2, §3

Clu-GABA α3β2γ2 = Clu-GABA α3β2γ2 (Canis lupus familiaris, UniProt A0A8I3PRS3+A0A8I3RPG5+E2RSQ0); test: as above; type: cell-based
From the text: as §1, §2, §3

Clu-GABA α5β2γ2 = Clu-GABA α5β2γ2 (Canis lupus familiaris, UniProt A0A8I3PC22+A0A8I3RPG5+E2RSQ0); test: as above; type: cell-based
From the text: as §1, §2, §3

Hsa-GABARs = test: Voltage-clamp inhibition, summary over the six human subunit combinations; settings: for average GABA current inhibition: at 30 μM, average over Hsa-GABARs; for inhibition of human GABARs (in words): tested up to 30 μM
Protocol: as §2
as §3, with “equations. The concentration-activation curves were fitted using the following equation: Y=100/1+10^H(logEC50-X) where Y is the normalized response, logEC50 is the logarithm of the concentration of agonist eliciting half-maximal current amplitude, X is the log of the dose or concentration, and H is the slope factor or Hill slope. The same equation was used for the concentration-inhibition curves but logEC50 was replaced by logIC50 (half-maximal inhibitory concentration).” for “equations.”
(§4) The agonist and the drug were then washed off for 15 s and the oocyte was exposed again to the same drug concentration for 25 s before increasing to the next concentration.

Clu-GABARs = test: Voltage-clamp inhibition, summary over the five canine subunit combinations; type: cell-based, Canis lupus familiaris; settings: at 30 μM
Protocol: as §2
as §3, with “equations. The concentration-activation curves were fitted using the following equation: Y=100/1+10^H(logEC50-X) where Y is the normalized response, logEC50 is the logarithm of the concentration of agonist eliciting half-maximal current amplitude, X is the log of the dose or concentration, and H is the slope factor or Hill slope. The same equation was used for the concentration-inhibition curves but logEC50 was replaced by logIC50 (half-maximal inhibitory concentration).” for “equations.”
as §4

human and canine GABARs = test: Voltage-clamp inhibition, summary over human and canine receptors; type: cell-based; settings: for inhibitory effect on human and canine GABARs (in words): tested up to 30 μM
Protocol: as §2
as §3, with “equations. The concentration-activation curves were fitted using the following equation: Y=100/1+10^H(logEC50-X) where Y is the normalized response, logEC50 is the logarithm of the concentration of agonist eliciting half-maximal current amplitude, X is the log of the dose or concentration, and H is the slope factor or Hill slope. The same equation was used for the concentration-inhibition curves but logEC50 was replaced by logIC50 (half-maximal inhibitory concentration).” for “equations.”
as §4

[1] = parameters: method as in PMID 33733534; settings: cited from earlier work; for maximum plasma concentration: dose of 25 mg/kg body weight; for maximum in vivo concentration in dog plasma: oral treatment at the minimum recommended dose
Hsa-GABA α1β2γ2 = Hsa-GABA α1β2γ2 (Homo sapiens, UniProt P14867+P18507+P47870); test: Two-electrode voltage-clamp inhibition of GABA current, receptor expressed in Xenopus oocytes
From the text: as §1, §2, §3

[2] = parameters: method as in earlier work; settings: mdr1 mutant mouse model; cited from earlier work
[3] = parameters: method as in PMID 40269978; settings: MDR1 mutant dog breeds; cited from earlier work
[4] = tested on: human and dog GABAA receptor containing the γ2 subunit; test: Positive modulation by diazepam to confirm γ2 incorporation; type: cell-based; settings: all receptor subtypes expressed; data not shown
Protocol: as §2

[5] = Xenopus oocytes, −80 mV, 60 s pre-exposure, co-applied with GABA 3 µM (near EC10)
[6] = Xenopus oocytes, −80 mV, 60 s pre-exposure, co-applied with GABA 1 µM (near EC10)
[7] = Xenopus oocytes, −80 mV, 60 s pre-exposure, co-applied with GABA 0.3 µM (near EC10)
[8] = Xenopus oocytes, −80 mV, 60 s pre-exposure, co-applied with GABA 5 µM (near EC10)
[9] = Xenopus oocytes, −80 mV, 60 s pre-exposure, co-applied with GABA 0.5 µM (near EC10)

Sequence of Hsa-GABA α5β2γ2 (P31644 32-462): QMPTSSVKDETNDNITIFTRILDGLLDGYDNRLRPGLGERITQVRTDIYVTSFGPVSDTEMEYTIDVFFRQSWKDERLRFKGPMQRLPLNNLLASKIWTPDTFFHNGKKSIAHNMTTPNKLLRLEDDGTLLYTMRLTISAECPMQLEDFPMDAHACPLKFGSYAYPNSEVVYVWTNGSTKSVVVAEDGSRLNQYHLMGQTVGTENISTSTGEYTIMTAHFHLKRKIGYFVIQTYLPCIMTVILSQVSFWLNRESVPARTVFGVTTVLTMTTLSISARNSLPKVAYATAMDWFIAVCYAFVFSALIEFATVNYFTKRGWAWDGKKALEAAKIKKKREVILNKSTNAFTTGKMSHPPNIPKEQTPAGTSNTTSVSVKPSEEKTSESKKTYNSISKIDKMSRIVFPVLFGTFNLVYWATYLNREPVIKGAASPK
Sequence of Hsa-GABA α5β2γ2 (P47870 26-474 isoform P47870-1 limits assumed): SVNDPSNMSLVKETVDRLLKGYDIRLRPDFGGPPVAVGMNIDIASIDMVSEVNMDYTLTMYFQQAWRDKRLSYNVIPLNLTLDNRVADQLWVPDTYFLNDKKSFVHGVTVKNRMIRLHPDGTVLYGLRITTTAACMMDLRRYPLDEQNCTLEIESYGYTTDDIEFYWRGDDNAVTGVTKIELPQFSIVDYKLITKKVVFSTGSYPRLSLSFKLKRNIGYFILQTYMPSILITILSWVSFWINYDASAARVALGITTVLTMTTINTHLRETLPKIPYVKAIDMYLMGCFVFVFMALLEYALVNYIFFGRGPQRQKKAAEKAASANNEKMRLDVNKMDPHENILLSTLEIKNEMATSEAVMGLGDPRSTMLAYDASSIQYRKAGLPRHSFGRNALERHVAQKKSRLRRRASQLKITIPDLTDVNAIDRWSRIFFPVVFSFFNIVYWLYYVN
Sequence of Hsa-GABA α5β2γ2 (P18507 40-467 isoform P18507-1 limits assumed): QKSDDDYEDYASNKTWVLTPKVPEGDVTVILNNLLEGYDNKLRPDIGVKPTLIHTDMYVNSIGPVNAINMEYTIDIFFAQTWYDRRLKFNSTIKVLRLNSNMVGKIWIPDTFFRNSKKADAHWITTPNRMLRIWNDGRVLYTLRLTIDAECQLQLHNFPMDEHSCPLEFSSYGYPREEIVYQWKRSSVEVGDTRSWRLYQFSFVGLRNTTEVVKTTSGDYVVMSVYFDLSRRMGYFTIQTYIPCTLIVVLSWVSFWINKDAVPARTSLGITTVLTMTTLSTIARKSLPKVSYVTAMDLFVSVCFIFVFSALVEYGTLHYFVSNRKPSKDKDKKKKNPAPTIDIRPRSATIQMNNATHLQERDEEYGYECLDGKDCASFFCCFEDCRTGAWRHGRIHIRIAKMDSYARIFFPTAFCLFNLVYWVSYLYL
Sequence of Clu-GABA α5β2γ2 (A0A8I3PC22 32-462): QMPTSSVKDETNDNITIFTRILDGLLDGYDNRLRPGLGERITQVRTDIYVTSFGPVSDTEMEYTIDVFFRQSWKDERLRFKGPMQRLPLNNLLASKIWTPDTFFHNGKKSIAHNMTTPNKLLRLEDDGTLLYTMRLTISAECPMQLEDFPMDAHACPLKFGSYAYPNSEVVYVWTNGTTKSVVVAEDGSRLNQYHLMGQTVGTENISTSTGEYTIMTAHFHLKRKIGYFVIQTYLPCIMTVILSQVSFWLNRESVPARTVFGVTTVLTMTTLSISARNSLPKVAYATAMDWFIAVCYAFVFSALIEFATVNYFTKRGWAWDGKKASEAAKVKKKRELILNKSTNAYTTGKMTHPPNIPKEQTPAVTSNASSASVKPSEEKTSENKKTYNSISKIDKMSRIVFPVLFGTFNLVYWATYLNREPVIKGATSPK
Sequence of Clu-GABA α5β2γ2 (A0A8I3RPG5 25-473): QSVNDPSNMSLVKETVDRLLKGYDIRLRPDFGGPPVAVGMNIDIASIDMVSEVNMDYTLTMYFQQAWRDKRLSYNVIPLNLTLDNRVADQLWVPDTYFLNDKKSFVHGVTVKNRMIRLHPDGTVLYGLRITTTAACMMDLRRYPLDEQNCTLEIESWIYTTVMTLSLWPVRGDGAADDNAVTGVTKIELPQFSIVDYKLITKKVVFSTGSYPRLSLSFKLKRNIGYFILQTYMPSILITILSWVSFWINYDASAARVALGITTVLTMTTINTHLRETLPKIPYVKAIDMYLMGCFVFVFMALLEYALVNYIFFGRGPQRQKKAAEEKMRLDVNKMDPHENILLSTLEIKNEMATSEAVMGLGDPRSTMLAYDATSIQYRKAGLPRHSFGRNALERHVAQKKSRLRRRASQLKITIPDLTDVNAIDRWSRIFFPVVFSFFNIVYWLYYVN
Sequence of Clu-GABA α5β2γ2 (E2RSQ0 40-467): as the sequence (P18507 40-467 isoform P18507-1 limits assumed) above
Sequence of Clu-GABA α1β2γ2 (A0A2H4NNI8 28-456): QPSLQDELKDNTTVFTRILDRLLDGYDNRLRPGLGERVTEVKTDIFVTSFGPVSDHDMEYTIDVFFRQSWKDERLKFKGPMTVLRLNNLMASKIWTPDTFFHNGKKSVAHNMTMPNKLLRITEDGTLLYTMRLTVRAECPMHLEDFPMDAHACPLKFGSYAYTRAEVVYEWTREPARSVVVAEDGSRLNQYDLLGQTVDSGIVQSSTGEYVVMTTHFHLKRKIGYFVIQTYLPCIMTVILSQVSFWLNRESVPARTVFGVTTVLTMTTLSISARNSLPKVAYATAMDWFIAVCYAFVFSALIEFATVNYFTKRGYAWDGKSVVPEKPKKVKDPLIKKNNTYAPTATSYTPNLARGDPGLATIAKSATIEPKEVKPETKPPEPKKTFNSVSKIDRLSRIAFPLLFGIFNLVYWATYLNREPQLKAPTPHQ
Sequence of Clu-GABA α1β2γ2 (A0A8I3RPG5 25-473): as the sequence (A0A8I3RPG5 25-473) above
Sequence of Clu-GABA α1β2γ2 (E2RSQ0 40-467): as the sequence (P18507 40-467 isoform P18507-1 limits assumed) above

| Structure (SMILES) | IC50 (Hsa-GABA α2β2γ2; [5]) [µM] | IC50 (Hsa-GABA α2β3γ2; [6]) [µM] | IC50 (Hsa-GABA α3β2γ2; [6]) [µM] | IC50 (Hsa-GABA α5β2γ2; [7]) [µM] | IC50 (Hsa-GABA α6β2γ2; [7]) [µM] | IC50 (Clu-GABA α1β2γ2; [6]) [µM] | IC50 (Clu-GABA α2β2γ2; [8]) [µM] | IC50 (Clu-GABA α2β3γ2; [6]) [µM] | IC50 (Clu-GABA α3β2γ2; [9]) [µM] | IC50 (Clu-GABA α5β2γ2; [6]) [µM] | average GABA current inhibition (Hsa-GABARs) [%] | average GABA current inhibition (Clu-GABARs) [%] | inhibitory effect on human and canine GABARs (in words) (human and canine GABARs) | IC50 (Hsa-GABA α1β2γ2; [6]) [µM] | inhibition of human GABARs (in words) (Hsa-GABARs) | maximum in vivo concentration in dog plasma [1] [µM] | other results |
| --- | --- | --- | --- | --- | --- | --- | --- | --- | --- | --- | --- | --- | --- | --- | --- | --- | --- |
| O=C(CNC(=O)c1ccc(C2=NOC(c3cc(Cl)cc(C(F)(F)F)c3)(C(F)(F)F)C2)c2ccccc12)NCC(F)(F)F (centres unmarked) [Afoxolaner, afoxolaner] | 9.9 | 20.5 | 15 | 6.3 | 11.7 | 3 | 20.6 | 15.7 | 17.9 | 7.4 | 59 | 57 | partial to high inhibition |  |  |  | Cmax ([1]; oral dosing at 2.5 mg/kg, read-out: Cmax (peak concentration in the bloodstream)): 4.7 µM |
| Cc1cc(C2=NOC(c3cc(Cl)cc(Cl)c3)(C(F)(F)F)C2)ccc1C(=O)NCC(=O)NCC(F)(F)F (centres unmarked) [Fluralaner, fluralaner] | 1.9 | 5.5 | 4.9 | 2.7 | 2.2 | 4.3 | 2.2 | 13 | 9.4 | 2.3 | 82 | 76 | partial to high inhibition | 5.7 | high inhibition |  | current inhibition (Hsa-GABA α2β2γ2; at 30 μM): > 90%; current inhibition (Hsa-GABA α5β2γ2; at 30 μM): > 90%; current inhibition (Hsa-GABA α6β2γ2; at 30 μM): > 90%; maximum plasma concentration ([1]; converted from ng/ml): 6.1 µM; maximum plasma concentration [1]: 3400 ng/mL; brain penetration (in words) [2]: brain penetration of fluralaner was observed |
| Cc1cc(C2=NO[C@@](c3cc(Cl)c(Cl)c(Cl)c3)(C(F)(F)F)C2)sc1C(=O)NCC(=O)NCC(F)(F)F [Lotilaner, lotilaner] |  |  |  |  |  |  |  |  |  |  | 13 | 20 | inactive |  |  | 6.7 | IC50 (Hsa-GABA α1β2γ2): > 30 µM; IC50 (Hsa-GABA α2β2γ2): > 30 µM; IC50 (Hsa-GABA α2β3γ2): > 30 µM; IC50 (Hsa-GABA α3β2γ2): > 30 µM; IC50 (Hsa-GABA α5β2γ2): > 30 µM; IC50 (Hsa-GABA α6β2γ2): > 30 µM; IC50 (Clu-GABA α1β2γ2): > 30 µM; IC50 (Clu-GABA α2β2γ2): > 30 µM; IC50 (Clu-GABA α2β3γ2): > 30 µM; IC50 (Clu-GABA α3β2γ2): > 30 µM; IC50 (Clu-GABA α5β2γ2): > 30 µM; IC50 (human and canine GABARs; range or bound over all eleven subunit combinations): > 30 µM; inhibitory effect on human and canine GABARs (in words) (human and canine GABARs; listed as lotilaner): little or no inhibitory effect; also recorded: did not show any significant inhibition; neurological symptoms (in words) [3]: did not reveal neurological symptoms |
| CS(=O)(=O)CC(=O)N1CC2(C1)OCc1cc(C3=NO[C@@](c4cc(Cl)c(F)c(Cl)c4)(C(F)(F)F)C3)ccc12 [Sarolaner, sarolaner] | 19.5 | > 30 | 13.4 | 8.4 | 16.1 | 21.8 | 10.2 | 13.4 | 13.1 | 10.2 | 53 | 57 | partial to high inhibition | 21.9 | partial inhibition | 1.9 | Cmax ([1]; dose of 2 mg/kg body weight, read-out: Cmax in dog plasma): 1.9 µM |
| CN1C(=O)CN=C(c2ccccc2)c2cc(Cl)ccc21 [diazepam] |  |  |  |  |  |  |  |  |  |  |  |  |  |  |  |  | positive modulation [4]: > 200% |
